# Legend:
# DRD2 = DRD2 (Homo sapiens, UniProt P14416); assay: PRESTO-TANGO β-arrestin recruitment assay (HTLA cells transfected with DRD2-TANGO, luciferase readout); type: cell-based; parameters: TEV protease site and fused transcription factor (TANGO module); expressed in transfected cells; host or cells: HTLA cells (gift of G. Barnea), transiently transfected; details: for activity in β-arrestin recruitment (in words): PRESTO-TANGO; for EC50: PRESTO-TANGO β-arrestin recruitment, luciferase activity, Hill slope of 1.0; for difference in potency of probe vs parent compound: β-arrestin recruitment, probes vs their parent compounds
# Excerpt: To characterize the response of the β-arrestin effector pathway to our ligands, we used the Parallel-Receptor-ome Expression and Screening via Transcriptional Output TANGO (PRESTO-TANGO) assay developed in the Roth lab.[44],[45] This assay uses luciferase activity to monitor β-arrestin recruitment by DRD2 (Figure 3a).
# Figure 3 β-Arrestin recruitment analysis. (a) PRESTO-TANGO assay schematic: a ligand binds a chimeric DRD2 receptor, which then recruits β-arrestin fused with a TEV protease. The protease cuts a site between the receptor and a fused transcription factor, which then transits to the […] to initiate transcription of a luciferase gene. The luciferase activity is subsequently quantified.
# HTLA cells were a gift from the laboratory of G. Barnea and were maintained in DMEM supplemented with 10% FBS, 100 U/mL penicillin, 100 μg/mL streptomycin, 2 μg/mL puromycin, 100 μg/mL hygromycin B, and 100 μg/mL G418 in a humidified atmosphere at 37 °C in 5% CO2. On day 1, cells were plated at a density of 1 × 10^5 cells/cm^2 in a black wall, clear-bottom 96-well plate (Nunc). The following day (day 2), cells were transfected with a 10× solution of 3:1 mixture of DRD2-TANGO/Optifect Transfection Reagent (Thermo) in unsupplemented DMEM. On day 3, 1× drug stimulation solutions were prepared in filter-sterilized unsupplemented DMEM. The transfection media was shaken or aspirated from the wells, and drug stimulation solutions were gently added. On day 4, drug solutions were removed from one well every 10 s (to maintain consistency of incubation time) and 50 μL per well of Bright-Glo solution (Promega) diluted 20-fold in HBSS was added. After incubation for 2 min at room temperature, luminescence was counted with an integration time of 10 s in a Spectramax i3x plate reader (Molecular Devices).
# [1] = tested on: DRD2-expressing 293T cells vs untransduced 293T cells; assay: Flow cytometry quantification of probe labeling of cells; type: cell-based, human; details: probe 100 nm, photo-cross-linked, Alexa Fluor 555 azide; P < 0.0001, two-way ANOVA
# Experimental: Flow cytometry was used to quantify the number of cells that were successfully labeled by probes 5 and 7 as these were the most promising biochemically and seemed to display the highest propensity for labeling DRD2-expressing cells. To perform the quantification, our 293T cell line-expressing DRD2 or unmodified 293T cells as a negative control were treated with probes at a 100 nm concentration, the lower concentration than the EC50 determination, likely due in large part to the covalent nature of the binding event versus the noncovalent EC50 assays. The probes were covalently cross-linked to the cells with UV, and the unbound probe was washed out. The azide-containing fluorescent dye was then clicked onto the probe, the unbound dye was washed out, and the cells were analyzed by flow cytometry (Figure 5a). […]
# Figure 5 Flow cytometry quantification of probe labeling. […] The cells were then analyzed by flow cytometry. P values determined using two-way ANOVA in GraphPad; **** corresponds to P < 0.0001. […]
# HEK293T cells and a stable HEK293T-derived cell line-expressing DRD2-Strep Tag II fusion were maintained in DMEM supplemented with 10% FBS, 100 U/mL penicillin, and 100 μg/mL streptomycin in a humidified atmosphere at 37 °C in 5% CO2. […] The cells were then washed 3 times with PBS with 5% BSA and analyzed with a BD Accuri C6 flow cytometer. […]
# Chain of DRD2 (P14416 whole entry, the tested form may be a part): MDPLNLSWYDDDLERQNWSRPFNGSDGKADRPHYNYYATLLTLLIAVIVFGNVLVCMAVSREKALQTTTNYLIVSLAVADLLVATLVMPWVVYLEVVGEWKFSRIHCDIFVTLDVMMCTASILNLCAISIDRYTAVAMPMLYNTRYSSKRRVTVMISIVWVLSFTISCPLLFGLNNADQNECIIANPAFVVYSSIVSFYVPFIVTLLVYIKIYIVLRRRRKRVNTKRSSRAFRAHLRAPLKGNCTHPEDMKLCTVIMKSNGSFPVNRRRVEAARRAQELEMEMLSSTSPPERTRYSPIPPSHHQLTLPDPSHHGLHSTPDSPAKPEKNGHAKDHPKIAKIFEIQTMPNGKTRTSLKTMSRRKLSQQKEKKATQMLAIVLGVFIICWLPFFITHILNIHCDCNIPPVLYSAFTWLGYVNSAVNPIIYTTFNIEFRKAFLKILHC
activity in β-arrestin recruitment (in words) (DRD2),EC50 (DRD2),difference in potency of probe vs parent compound (DRD2),Compound,labeling of cells expressing DRD2 vs cells that do not (flow cytometry) [1]
low micromolar activity,1.32 µM,~1000 ×,"C#CCOc1ccc(C(=O)c2ccc(CNCCc3cccc4c3CC(=O)N4)cc2)cc1 [Compound 5, 4-(2-((4-(4-(Prop-2-yn-1-yloxy)benzoyl)benzyl)amino)ethyl)indolin-2-one]",highly statistically significant increase in the labeling of cells expressing DRD2 over those that do not
low micromolar activity,0.99 µM,~1000 ×,"C#CCOc1ccc(C(=O)c2ccc(CN[C@H]3CCc4nc(N)sc4C3)cc2)cc1 [Compound 7, (S)-(4-(((2-Amino-4,5,6,7-tetrahydrobenzo[d]thiazol-6-yl)amino)methyl)phenyl)(4-(prop-2-yn-1-yloxy)phenyl)methanone]",highly statistically significant increase in the labeling of cells expressing DRD2 over those that do not

# Source: paper PMC9585581, “Developing Photoaffinity Probes for Dopamine Receptor D2 to Determine Targets of Parkinson’s Disease Drugs” (ACS Chemical Neuroscience, 2022)
